Results on 9 molecules are retold here after patent US20260207578A1, “COMPOUND BASED ON SULFUR/OXYGEN SUBSTITUTED GLUTARIMIDE-BASED ISOINDOLINONE SKELETON AND USE THEREOF” (Gluetacs Therapeutics (Shanghai) Co., LTD., priority 2022, published 2026).

The test system of one assay is CCRF-CEM. In words: Half inhibitory concentration (IC50) against tumor cells, Cell Counting Kit-8. As to conditions: Homo sapiens, CCK-8, 96 h treatment, read-out: inhibitory activity (IC50, nM) against tumor cells proliferation. The assay is classed as cell-based. Background: Formazan colour is commonly taken as a measure of viable cells.
The next assay concerns Daudi. The description is as above. It is filed as cell-based. The note with it: Homo sapiens, CCK-8, 96 h treatment, read-out: inhibitory activity (IC50, nM) against tumor cells proliferation.
For a further assay, the target named is T1, IKZF3 (Homo sapiens, UniProt Q96SW2+Q9UKT9).
T1 construct: endogenous in cells; host or cells: human PBMCs (Milecell Biotechnologies)
Put plainly: Western-blot assay, substrate protein in hPBMCs. As to conditions: hPBMC cells, 24 hours, tested at 50 nM and 500 nM, table does not say which. It is filed as cell-based. In short, it runs like this:
(§1)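 hPBMCs (1×10^6 cells/mL) exposed 24 h to compound at 50 nM and 500 nM, lysed, and probed by Western blot. Band grayscale normalized to internal control gives % protein remaining versus DMSO; DC50 from concentration-response fit at half DMSO band intensity.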

In the next assay the target is T2, GSPT1 (Homo sapiens, UniProt P15170+Q96SW2).
T2 construct: endogenous in cells; host or cells: human PBMCs (Milecell Biotechnologies)
Put plainly: Western-blot assay, substrate protein in hPBMCs. It is filed as cell-based. The note with it: hPBMC cells, 24 hours, tested at 50 nM and 500 nM, table does not say which. In short, it runs like this: (§2)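 Steps: treat hPBMCs 24 h; lyse on ice in RIPA with phosphatase inhibitors; quantify protein by BCA; denature at 95 °C and blot. Remaining protein (%) is the target/internal-control band ratio, normalised; degradation rate is its complement.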

The test system of a further assay is CAL-62. In words: Half inhibitory concentration (IC50) against tumor cells, Cell Counting Kit-8. It is filed as cell-based. The note with it: Homo sapiens, CCK-8, 96 h treatment, read-out: inhibitory activity (IC50, nM) against tumor cells proliferation.
For the next assay, the system named is JEKO-1. The assay is described as above. The assay is classed as cell-based. As to conditions: Homo sapiens, CCK-8, 96 h treatment, read-out: inhibitory activity (IC50, nM) against tumor cells proliferation.
The test system of another assay is Kasumi-1. The assay is described as above. It is filed as cell-based. The note with it: Homo sapiens, CCK-8, 96 h treatment, read-out: inhibitory activity (IC50, nM) against tumor cells proliferation.
The subject of another assay is MDA-MB-231. The assay is described as above. It is filed as cell-based. As to conditions: Homo sapiens, CCK-8, 96 h treatment, read-out: inhibitory activity (IC50, nM) against tumor cells proliferation.
The test system of a further assay is MM.1R. Described as above. It is filed as cell-based. The note with it: Homo sapiens, CCK-8, 96 h treatment, read-out: inhibitory activity (IC50, nM) against tumor cells proliferation.
The next assay has as its system MM.1S. The assay is described as above. The note with it: Homo sapiens, MM1.S, CCK-8, 96 h treatment, read-out: inhibitory activity (IC50, nM) against tumor cells proliferation. The assay is classed as cell-based.
The next assay relates to MV-4-11. The assay is described as above. As to conditions: Homo sapiens, MV4-11, CCK-8, 96 h treatment, read-out: inhibitory activity (IC50, nM) against tumor cells proliferation. The assay is classed as cell-based.
Another assay deals with THP-1. The assay is described as above. The assay is classed as cell-based. The note with it: Homo sapiens, CCK-8, 96 h treatment, read-out: inhibitory activity (IC50, nM) against tumor cells proliferation.
In assay [1] the target is T3, human Cereblon WT GST-tagged protein (Homo sapiens, UniProt Q96SW2).
T3 construct: purchased CISBIO 64BDCRBNPEH
Put plainly: CRBN-binding affinity, HTRF (CEREBLON BINDING kit). As to conditions: displacement of Thalidomide-Re reagent, 3 hours at room temperature. In short, it runs like this: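 HTRF competition format: compound, GST-tagged wild-type human Cereblon, Thalidomide-Re tracer and GST Eu antibody were combined in PROTAC binding buffer. Binding was derived from emission at 620 nm relative to blank and solvent control wells.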
A general note: TR-FRET usually uses a lanthanide donor and a delayed reading to cut background.

For the next assay, the target named is T4, IKZF1 (Homo sapiens, UniProt Q13422+Q96SW2).
T4 construct: endogenous in cells; host or cells: human PBMCs (Milecell Biotechnologies)
In words: Western-blot assay, substrate protein in hPBMCs. It is filed as cell-based. The note with it: hPBMC cells, 24 hours, tested at 50 nM and 500 nM, table does not say which. In short, it runs like this:
as §1

Another assay has as its target T5, CK1α (Homo sapiens, UniProt P48729+Q96SW2).
T5 construct: endogenous in cells; host or cells: human PBMCs (Milecell Biotechnologies)
Put plainly: Western-blot assay, substrate protein in hPBMCs. The assay is classed as cell-based. As to conditions: hPBMC cells, 24 hours, tested at 50 nM and 500 nM, table does not say which. In short, it runs like this:
as §2

Another assay addresses T6, IKZF2 (Homo sapiens, UniProt Q96SW2+Q9UKS7).
T6 construct: endogenous in cells; host or cells: human PBMCs (Milecell Biotechnologies)
Put plainly: Western-blot assay, substrate protein in hPBMCs. The assay is classed as cell-based. The note with it: hPBMC cells, 24 hours, tested at 50 nM and 500 nM, table does not say which. In short, it runs like this: as §2

A further assay concerns the target T7, Wee1 (Homo sapiens, UniProt P30291+Q96SW2).
T7 construct: endogenous in cells; host or cells: human PBMCs (Milecell Biotechnologies)
In words: Western-blot assay, substrate protein in hPBMCs. As to conditions: hPBMC cells, 24 hours, tested at 50 nM and 500 nM, table does not say which. The assay is classed as cell-based. In short, it runs like this:
as §2

T4 sequence (Q13422 whole entry): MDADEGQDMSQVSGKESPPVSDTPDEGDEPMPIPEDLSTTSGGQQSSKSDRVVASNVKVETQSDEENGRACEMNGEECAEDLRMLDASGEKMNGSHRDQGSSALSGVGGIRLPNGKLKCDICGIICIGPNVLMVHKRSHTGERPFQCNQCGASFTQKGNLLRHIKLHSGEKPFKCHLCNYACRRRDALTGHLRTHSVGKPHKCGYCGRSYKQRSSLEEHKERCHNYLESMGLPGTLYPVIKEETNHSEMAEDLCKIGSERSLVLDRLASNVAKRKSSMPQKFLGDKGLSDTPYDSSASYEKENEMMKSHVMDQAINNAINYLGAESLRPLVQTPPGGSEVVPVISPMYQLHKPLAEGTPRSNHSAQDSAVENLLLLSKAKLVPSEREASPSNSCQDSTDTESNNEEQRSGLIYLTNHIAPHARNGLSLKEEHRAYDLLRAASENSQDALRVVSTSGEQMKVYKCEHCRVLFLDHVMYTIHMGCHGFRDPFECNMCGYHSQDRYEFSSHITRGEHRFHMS
T4 sequence (Q96SW2 whole entry): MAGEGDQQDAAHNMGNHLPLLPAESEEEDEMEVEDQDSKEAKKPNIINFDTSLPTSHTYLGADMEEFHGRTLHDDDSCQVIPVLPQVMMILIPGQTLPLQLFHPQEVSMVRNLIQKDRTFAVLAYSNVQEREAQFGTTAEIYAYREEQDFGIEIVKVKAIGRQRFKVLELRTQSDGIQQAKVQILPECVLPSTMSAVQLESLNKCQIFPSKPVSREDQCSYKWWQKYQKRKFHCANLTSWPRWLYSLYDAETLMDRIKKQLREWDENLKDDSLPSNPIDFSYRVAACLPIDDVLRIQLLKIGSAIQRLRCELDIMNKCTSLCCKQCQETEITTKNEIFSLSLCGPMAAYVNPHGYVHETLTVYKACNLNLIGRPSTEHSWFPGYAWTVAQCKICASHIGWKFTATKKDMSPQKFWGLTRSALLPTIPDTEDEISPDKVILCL
T4 sequence (Q16531 whole entry partner): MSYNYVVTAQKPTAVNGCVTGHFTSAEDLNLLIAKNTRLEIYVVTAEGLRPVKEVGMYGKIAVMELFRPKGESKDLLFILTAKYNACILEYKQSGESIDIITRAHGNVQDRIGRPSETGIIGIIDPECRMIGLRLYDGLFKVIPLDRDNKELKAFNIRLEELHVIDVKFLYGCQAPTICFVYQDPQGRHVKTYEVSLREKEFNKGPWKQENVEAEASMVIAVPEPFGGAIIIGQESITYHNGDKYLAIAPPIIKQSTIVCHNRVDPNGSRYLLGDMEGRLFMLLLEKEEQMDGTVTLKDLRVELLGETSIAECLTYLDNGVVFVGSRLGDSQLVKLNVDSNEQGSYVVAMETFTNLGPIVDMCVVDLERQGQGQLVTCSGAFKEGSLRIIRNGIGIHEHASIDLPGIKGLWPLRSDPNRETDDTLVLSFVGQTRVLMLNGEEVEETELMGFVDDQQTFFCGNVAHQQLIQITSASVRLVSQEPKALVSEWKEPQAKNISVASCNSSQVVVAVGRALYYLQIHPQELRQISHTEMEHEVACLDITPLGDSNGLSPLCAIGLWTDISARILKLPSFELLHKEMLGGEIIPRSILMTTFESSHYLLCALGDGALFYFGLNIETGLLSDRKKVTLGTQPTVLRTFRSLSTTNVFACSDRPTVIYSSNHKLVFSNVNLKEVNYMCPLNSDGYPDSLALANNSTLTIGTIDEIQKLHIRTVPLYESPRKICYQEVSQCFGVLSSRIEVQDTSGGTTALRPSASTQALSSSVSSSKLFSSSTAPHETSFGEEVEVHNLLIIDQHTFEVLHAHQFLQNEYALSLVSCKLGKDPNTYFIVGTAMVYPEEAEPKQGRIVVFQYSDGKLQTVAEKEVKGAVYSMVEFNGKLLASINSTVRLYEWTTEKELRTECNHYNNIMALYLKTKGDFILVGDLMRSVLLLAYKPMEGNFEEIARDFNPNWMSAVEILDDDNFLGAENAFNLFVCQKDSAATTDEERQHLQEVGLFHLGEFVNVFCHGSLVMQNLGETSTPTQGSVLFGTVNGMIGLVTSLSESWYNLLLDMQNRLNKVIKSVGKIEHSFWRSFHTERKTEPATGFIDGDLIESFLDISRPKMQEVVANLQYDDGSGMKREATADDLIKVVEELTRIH
T2 sequence (P15170 whole entry): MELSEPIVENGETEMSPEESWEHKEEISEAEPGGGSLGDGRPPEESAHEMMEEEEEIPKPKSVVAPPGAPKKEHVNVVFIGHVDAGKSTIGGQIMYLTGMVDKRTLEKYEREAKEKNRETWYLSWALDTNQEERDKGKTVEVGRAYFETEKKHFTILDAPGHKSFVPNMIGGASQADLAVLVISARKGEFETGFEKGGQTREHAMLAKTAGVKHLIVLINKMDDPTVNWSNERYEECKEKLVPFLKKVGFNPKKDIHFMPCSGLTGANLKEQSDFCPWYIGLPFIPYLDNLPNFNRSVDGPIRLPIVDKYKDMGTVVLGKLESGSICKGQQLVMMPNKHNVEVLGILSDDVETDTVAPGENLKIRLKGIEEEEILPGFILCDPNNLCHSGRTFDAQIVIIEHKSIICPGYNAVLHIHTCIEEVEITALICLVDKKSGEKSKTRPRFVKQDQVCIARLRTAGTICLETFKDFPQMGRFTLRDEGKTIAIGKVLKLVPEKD
T2 sequence (Q96SW2 whole entry): as the sequence (Q96SW2 whole entry) above
T2 sequence (Q16531 whole entry partner): as the sequence (Q16531 whole entry partner) above
T3 sequence (Q96SW2 whole entry): as the sequence (Q96SW2 whole entry) above
T6 sequence (Q9UKS7 whole entry): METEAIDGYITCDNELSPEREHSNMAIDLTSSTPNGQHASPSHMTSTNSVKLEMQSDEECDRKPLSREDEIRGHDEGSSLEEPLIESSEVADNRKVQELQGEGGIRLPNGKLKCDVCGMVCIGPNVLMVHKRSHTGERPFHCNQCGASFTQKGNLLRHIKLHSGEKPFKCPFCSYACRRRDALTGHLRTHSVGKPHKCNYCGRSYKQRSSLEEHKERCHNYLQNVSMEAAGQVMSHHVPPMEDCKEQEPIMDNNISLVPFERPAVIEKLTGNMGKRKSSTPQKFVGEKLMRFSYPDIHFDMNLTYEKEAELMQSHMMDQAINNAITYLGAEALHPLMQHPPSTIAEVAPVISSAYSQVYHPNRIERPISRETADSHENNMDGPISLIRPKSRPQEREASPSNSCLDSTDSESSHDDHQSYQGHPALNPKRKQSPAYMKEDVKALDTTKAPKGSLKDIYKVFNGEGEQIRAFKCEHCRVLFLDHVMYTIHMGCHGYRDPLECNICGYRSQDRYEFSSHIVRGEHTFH
T6 sequence (Q96SW2 whole entry): as the sequence (Q96SW2 whole entry) above
T6 sequence (Q16531 whole entry partner): as the sequence (Q16531 whole entry partner) above
T7 sequence (P30291 whole entry): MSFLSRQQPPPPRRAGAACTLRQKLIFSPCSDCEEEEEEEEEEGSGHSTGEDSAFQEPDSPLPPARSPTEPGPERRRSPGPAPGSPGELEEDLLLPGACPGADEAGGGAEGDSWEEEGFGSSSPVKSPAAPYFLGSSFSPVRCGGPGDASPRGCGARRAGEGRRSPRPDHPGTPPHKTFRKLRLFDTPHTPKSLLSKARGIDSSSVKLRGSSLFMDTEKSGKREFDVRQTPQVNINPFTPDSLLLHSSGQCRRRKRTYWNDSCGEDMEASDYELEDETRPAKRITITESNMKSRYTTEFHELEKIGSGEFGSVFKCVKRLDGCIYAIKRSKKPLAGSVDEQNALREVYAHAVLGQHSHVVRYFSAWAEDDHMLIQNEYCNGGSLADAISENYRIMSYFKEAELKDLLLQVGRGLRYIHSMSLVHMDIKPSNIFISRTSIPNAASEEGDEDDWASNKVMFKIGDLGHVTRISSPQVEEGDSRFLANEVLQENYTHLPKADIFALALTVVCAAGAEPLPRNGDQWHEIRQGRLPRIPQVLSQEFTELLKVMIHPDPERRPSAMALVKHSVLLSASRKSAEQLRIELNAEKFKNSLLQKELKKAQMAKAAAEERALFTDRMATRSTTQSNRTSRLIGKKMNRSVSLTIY
T7 sequence (Q96SW2 whole entry): as the sequence (Q96SW2 whole entry) above
T7 sequence (Q16531 whole entry partner): as the sequence (Q16531 whole entry partner) above
T1 sequence (Q9UKT9 whole entry): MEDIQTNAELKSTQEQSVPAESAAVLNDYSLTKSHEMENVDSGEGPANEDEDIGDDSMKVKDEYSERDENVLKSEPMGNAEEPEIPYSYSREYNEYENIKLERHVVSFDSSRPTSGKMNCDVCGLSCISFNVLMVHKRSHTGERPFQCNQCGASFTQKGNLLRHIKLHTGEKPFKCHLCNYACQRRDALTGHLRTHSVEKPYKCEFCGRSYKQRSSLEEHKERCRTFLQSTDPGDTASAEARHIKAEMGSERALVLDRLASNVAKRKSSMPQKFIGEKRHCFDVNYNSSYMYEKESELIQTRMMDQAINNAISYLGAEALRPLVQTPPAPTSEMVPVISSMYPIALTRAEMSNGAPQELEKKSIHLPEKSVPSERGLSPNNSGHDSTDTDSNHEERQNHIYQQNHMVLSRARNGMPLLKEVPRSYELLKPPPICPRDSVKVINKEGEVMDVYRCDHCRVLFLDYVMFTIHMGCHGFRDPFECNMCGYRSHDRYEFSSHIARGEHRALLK
T1 sequence (Q96SW2 whole entry): as the sequence (Q96SW2 whole entry) above
T1 sequence (Q16531 whole entry partner): as the sequence (Q16531 whole entry partner) above

With `O=C1CCC(N2Cc3cc(SC4CCN(Cc5ccccc5-c5ccc(Cl)cc5)CC4)ccc3C2=O)C(=O)N1` (centres unmarked) [GT-03357, 3-(5-((1-((4′-chloro-[1,1′-biphenyl]-2-yl)methyl)piperidin-4-yl)thio)-1-oxoisoindolin-2-yl)piperidine-2,6-dione], the IC50 in the assay on CCRF-CEM and in the assay on Daudi was 100 to 500 nM throughout. In addition, the “substrate protein remaining %” value on IKZF3 and at GSPT1 was “A (0%≤ substrate protein remaining % ≤80%)” each time.

Consider `O=C1CCC(N2Cc3cc(SC4CN(Cc5ccccc5-c5ccc(Cl)cc5)C4)ccc3C2=O)C(=O)N1` (centres unmarked) [GT-03360, 3-(5-((1-((4′-chloro-[1,1′-biphenyl]-2-yl)methyl)azetidin-3-yl)thio)-1-oxoisoindolin-2-yl)piperidine-2,6-dione], for which the IC50 is 50 to 100 nM in the assay on CAL-62; 50 to 100 nM with CCRF-CEM; less than 1 nM with Daudi; 100 to 500 nM in the assay on JEKO-1; 100 to 500 nM in the assay with Kasumi-1; 100 to 500 nM in the assay on MDA-MB-231. For the same molecule, the IC50 in the assay with MM.1R was 50 to 100 nM; in the assay on MM.1S it was 100 to 500 nM; in the assay with MV-4-11 it was 100 to 500 nM; with THP-1, 10 to 50 nM; in assay [1] it was less than 500 nM. Moreover, the “substrate protein remaining %” value on IKZF1, at IKZF3, at CK1α, at GSPT1 and on IKZF2 was “A (0%≤ substrate protein remaining % ≤80%)” throughout.

As to `O=C1CCC(N2Cc3cc(OC4CN(Cc5ccccc5-c5ccc(Cl)cc5)C4)ccc3C2=O)C(=O)N1` (centres unmarked) [GT-03363, 3-(5-((1-((4′-chloro-[1,1′-biphenyl]-2-yl)methyl)azetidin-3-yl)oxy)-1-oxoisoindolin-2-yl)piperidine-2,6-dione], the IC50 in the assay on CCRF-CEM was in the range of 100 to 500 nM; in the assay with JEKO-1, 100 to 500 nM; in [1], 500 to 1000 nM. Further, the “substrate protein remaining %” value at IKZF1, on IKZF3, at CK1α, on GSPT1 and on Wee1 was “A (0%≤ substrate protein remaining % ≤80%)” each time.

On to `O=C1CCC(N2Cc3cc(SC4CN(C(=O)c5ccccc5-c5ccc(Cl)cc5)C4)ccc3C2=O)C(=O)N1` (centres unmarked) [GT-03892, 3-(5-((1-(4′-chloro-[1,1′-biphenyl]-2-carbonyl)azetidin-3-yl)thio)-1-oxoisoindolin-2-yl)piperidine-2,6-dione], for which the IC50 in the assay with CAL-62 is 10 to 50 nM; in the assay with CCRF-CEM, 10 to 50 nM; in the assay on THP-1, 100 to 500 nM; in assay [1] it was less than 500 nM. For the same molecule, the “substrate protein remaining %” value on IKZF1, at IKZF3, on GSPT1, at IKZF2 and at Wee1 was “A (0%≤ substrate protein remaining % ≤80%)” in each case.

For the molecule `CC1(C)CCC(CN2CCC(Sc3ccc4c(c3)CN(C3CCC(=O)NC3=O)C4=O)C2)=C(c2ccc(Cl)cc2)C1` (centres unmarked) [GT-04245, 3-(5-((1-((4′-chloro-5,5-dimethyl-3,4,5,6-tetrahydro-[1,1′-biphenyl]-2-yl)methyl)pyrrolidin-3-yl)thio)-1-oxoisoindolin-2-yl)piperidine-2,6-dione], the IC50 in the assay on THP-1 was 500 to 1000 nM; in assay [1] it was less than 500 nM. Also, the “substrate protein remaining %” value on GSPT1 and on IKZF2 was “A (0%≤ substrate protein remaining % ≤80%)” each time.

On to `O=C1CCC(N2Cc3cc(SC4CCN(C(=O)c5ccccc5-c5ccc(Cl)cc5)CC4)ccc3C2=O)C(=O)N1` (centres unmarked) [GT-06182, 3-(5-((1-(4′-chloro-[1,1′-biphenyl]-2-carbonyl)piperidin-4-yl)thio)-1-oxoisoindolin-2-yl)piperidine-2,6-dione], for which the IC50 is 10 to 50 nM with MM.1S and less than 500 nM in [1]. For the same molecule, the “substrate protein remaining %” value at IKZF1, at IKZF3, on CK1α, at GSPT1 and on Wee1 was “A (0%≤ substrate protein remaining % ≤80%)” throughout.

Turning to `O=C1CCC(N2Cc3cc(OC4CCN(C(=O)c5ccccc5-c5ccc(Cl)cc5)CC4)ccc3C2=O)C(=O)N1` (centres unmarked) [GT-06204, 3-(5-((1-(4′-chloro-[1,1′-biphenyl]-2-carbonyl)piperidin-4-yl)oxy)-1-oxoisoindolin-2-yl)piperidine-2,6-dione], the IC50 in the assay on MM.1S was 10 to 50 nM; in assay [1], less than 500 nM. In addition, the “substrate protein remaining %” value at IKZF3, at CK1α, at GSPT1 and on IKZF2 was “A (0%≤ substrate protein remaining % ≤80%)” each time.

Consider `O=C1CCC(N2Cc3cc(SC4CCN(C(c5ccccc5)c5ccccc5)CC4(F)F)ccc3C2=O)C(=O)N1` (centres unmarked) [GT-06926, 3-(5-((1-benzhydryl-3,3-difluoropiperidin-4-yl)thio)-1-oxoisoindolin-2-yl)piperidine-2,6-dione], for which the IC50 lay in the range of 50 to 100 nM in the assay on CCRF-CEM, 100 to 500 nM in the assay on Kasumi-1, 10 to 50 nM in the assay with MV-4-11 and 1000 to 1900 nM in [1]. Also, the “substrate protein remaining %” value at IKZF1, at IKZF3, on CK1α, on GSPT1, on IKZF2 and at Wee1 was “A (0%≤ substrate protein remaining % ≤80%)” each time.

For `Nc1cccc2c1C(=O)N(C1CCC(=O)NC1=O)C2=O` (centres unmarked) [pomalidomide, reference compound], the IC50 in the assay on CAL-62, with CCRF-CEM, in the assay on Daudi, in the assay on JEKO-1, in the assay with Kasumi-1 and with MDA-MB-231 was greater than 10000 nM in each case. Moreover, the IC50 in the assay with MM.1R is greater than 10000 nM; in the assay with MM.1S, 500 to 1000 nM; in the assay on MV-4-11, greater than 10000 nM; with THP-1 it was greater than 10000 nM.
